These molecules were tested against T1, PD-1/PD-L1 (Homo sapiens, UniProt Q9NZQ7) (assay: PD-1/PD-L1 homogeneous time-resolved fluorescence (HTRF) binding assay). Conditions: PD-1/PD-L1 HTRF binding, ~3 nM PD1, 10 nM PD-L1, 25° C., PBS pH 7.4.
T1 construct: Recombinant human PD-L1 protein (19-238) with a His-tagged at the C-terminus; purchased AcroBiosystems PD1-H5229 (PD-L1); PD1-H5257 (PD-1)
T1 sequence (Q9NZQ7 19-238): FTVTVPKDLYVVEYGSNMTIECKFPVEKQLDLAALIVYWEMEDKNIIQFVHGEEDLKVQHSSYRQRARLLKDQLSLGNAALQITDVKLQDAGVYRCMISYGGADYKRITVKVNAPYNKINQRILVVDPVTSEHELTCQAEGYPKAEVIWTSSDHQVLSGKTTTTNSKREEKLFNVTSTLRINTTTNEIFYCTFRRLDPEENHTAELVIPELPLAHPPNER
Protocol: Assays were performed in standard black 384-well polystyrene plates and a final volume was 20 μL. The inhibitor was first serially diluted with DMSO and added to the wells of the plate, followed by the addition of other reaction components. The final concentration of DMSO in the assay was 1%. Assays were performed at 25° C. in PBS buffer (pH 7.4) containing 0.05% Tween-20 and 0.1% BSA. Recombinant human PD-L1 protein (19-238) with a His-tagged at the C-terminus was purchased from AcroBiosystems (PD1-H5229). Recombinant human PD-1 protein (25-167) with an Fc tag at the C-terminus was also purchased from AcroBiosystems (PD1-H5257). The PD-L1 and PD-1 proteins were diluted in assay buffer and then […] of the solution was extracted and added to the wells of the plate. Plates were centrifuged and proteins and inhibitors were preincubated for 40 minutes. After incubation, 0.1 μl of HTRF detection buffer containing europium […] labeled anti-human IgG (PerkinElmer-AD0212), Fc-specific and anti-His SureLight®-Allophycocyanin (APC, PerkinElmer-AD0059H) conjugated antibodies was added. After centrifugation, the plates were incubated at 25° C. for 60 minutes. Data was read in a PHERAstar FS plate reader (665 nm/620 nm ratio). Final concentrations in the assay were ˜3 nM PD1, 10 nM PD-L1, 1 nM europium anti-human IgG, and 20 nM anti-His-allophycocyanin. Activity data were fitted using GraphPad Prism 5_0 software to derive IC50 values for inhibitors.
For `COc1nc(-c2cccc(-c3cccc(-c4cc5cc6c(c(C#N)c5o4)CC[C@H]6N4CC[C@@H](C(=O)O)C4)c3Cl)c2C)cnc1CNC[C@@H]1CCC(=O)N1` [Compound 271], the IC50 was at most 10 nM.
Work on `Cc1c(Nc2nccc3cc(CNC[C@@H]4CCC(=O)N4)cnc23)cccc1-c1cccc(-c2cc3cc4c(c(C#N)c3o2)CC[C@H]4N2CC[C@@H](C(=O)O)C2)c1Cl` [Compound 274] yielded an IC50 of at most 10 nM.
`Cc1c(Nc2nccc3cc(CN4CC[C@@H](O)C4)cnc23)cccc1-c1cccc(-c2cc3c4c(cc([N+](=O)[O-])c3o2)C(N2CC(C(=O)O)C2)CCC4)c1C` (stereo partly drawn) [Compound 280] was tested, and the IC50 was over 100 nM.

Reference: patent US20220372031A1, “NOVEL TRICYCLIC AROMATIC HETEROCYCLIC COMPOUND, PREPARATION METHOD THEREFOR, PHARMACEUTICAL COMPOSITION AND APPLICATION THEREOF” (SHANGHAI LONGWOOD BIOPHARMACEUTICALS CO., LTD., priority 2019, published 2022)
